“Also recorded” adds a separate entry of the source.
Legend:
Bacillus cereus = test: standardized disk diffusion method (zone diameter / MIC); format: cell-based; details: at the amount printed in the same cell
Procedure: (§1) Compounds 4, 6, and 7 were tested for the inhibition of bacteria. A total of 9 bacterial strains were screened. The following Gram-negative and Gram-positive bacteria were included: Staphylococcus aureus, Enterobacter aerogenes, Esherichia coli, Klebsiella pneumonia, Pseudomonas aeruginosa, Serratia marcescens, Bacillus cerius, Bacillus subtillus and micrococcus luteus. Bacterial isolates were removed from storage, streaked on to nutrient agar plates and incubated for 18-24 hours at 35° C. A working bacterial suspension was prepared by suspending 3-5 isolated colonies in 5 mL saline solution. The turbidity of this suspension was carefully adjusted photometrically to equal that of a 0.5 McFarland standard. The zone diameters were determined by a standardized disk diffusion method using cation-supplemented Mueller-Hinton agar according to NCCLS guidelines (National Committee for Clinical Laboratory Standards. Methods for dilution Antimicrobial Susceptibility Tests for Bacteria that Grow Aerobically. Fifth Edition: Approved Standard M7-A5. Wayne, Pa.: NCCLS (2000)). Minimum inhibitory concentrations (MICs) were considered the lowest concentration that gave a clear zone of inhibition. The inoculated agar plates were incubated for 16-20 hours at 35° C. in ambient air. The diameters of the zones were read in millimeters.

Bacillus subtillus = test: as above; format: cell-based; details: at the amount printed in the same cell
Procedure: as §1

Micrococcus luteus = test: as above; format: cell-based; details: at the amount printed in the same cell
Procedure: as §1

Staphylococcus aureus = test: as above; format: cell-based; details: at the amount printed in the same cell
Procedure: as §1

RIF-1 murine tumor = test: RIF-1 murine model of tumor growth delay; format: in vivo, mice
Procedure: Tumor cells were injected, bilaterally, into the backs of mice. When tumors reached 100 mm^3, the mice were treated with an intraperitoneal injection of the compound. Tumor volumes were measured 3 times a week until they reached 4 times the size they were on the first treatment day. Data is recorded as “Days to 4×’ or ratio of ‘Days to 4×” of the treated over untreated controls.

NF-κB [1] = biological target: T1, NF-κB (Homo sapiens, UniProt P19838+Q04206); test: EMSA of nuclear NF-κB-DNA binding in nuclear extracts of PMA-stimulated Jurkat leukemia T-cells; format: cell-based; design: endogenous in cells; host or cells: Jurkat leukemia T-cells, clone E6-1 (ATCC), PMA-stimulated; nuclear extract; details: compound 1.0 μM
T1 sequence (Q04206 whole entry): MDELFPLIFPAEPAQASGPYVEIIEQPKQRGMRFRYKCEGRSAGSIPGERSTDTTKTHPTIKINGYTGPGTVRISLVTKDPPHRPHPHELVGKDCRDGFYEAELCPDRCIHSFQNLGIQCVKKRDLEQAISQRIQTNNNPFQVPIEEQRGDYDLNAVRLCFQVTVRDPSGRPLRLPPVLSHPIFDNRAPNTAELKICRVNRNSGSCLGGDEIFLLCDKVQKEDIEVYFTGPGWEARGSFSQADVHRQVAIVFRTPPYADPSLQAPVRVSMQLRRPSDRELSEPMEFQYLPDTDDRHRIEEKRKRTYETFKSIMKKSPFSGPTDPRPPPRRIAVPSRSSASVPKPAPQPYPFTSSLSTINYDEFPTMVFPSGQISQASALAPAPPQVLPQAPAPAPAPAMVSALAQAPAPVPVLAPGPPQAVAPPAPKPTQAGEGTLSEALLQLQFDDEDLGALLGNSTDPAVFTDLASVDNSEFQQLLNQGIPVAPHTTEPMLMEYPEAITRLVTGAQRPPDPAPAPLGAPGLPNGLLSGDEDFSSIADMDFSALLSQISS
T1 sequence (P19838 1-433 limits assumed): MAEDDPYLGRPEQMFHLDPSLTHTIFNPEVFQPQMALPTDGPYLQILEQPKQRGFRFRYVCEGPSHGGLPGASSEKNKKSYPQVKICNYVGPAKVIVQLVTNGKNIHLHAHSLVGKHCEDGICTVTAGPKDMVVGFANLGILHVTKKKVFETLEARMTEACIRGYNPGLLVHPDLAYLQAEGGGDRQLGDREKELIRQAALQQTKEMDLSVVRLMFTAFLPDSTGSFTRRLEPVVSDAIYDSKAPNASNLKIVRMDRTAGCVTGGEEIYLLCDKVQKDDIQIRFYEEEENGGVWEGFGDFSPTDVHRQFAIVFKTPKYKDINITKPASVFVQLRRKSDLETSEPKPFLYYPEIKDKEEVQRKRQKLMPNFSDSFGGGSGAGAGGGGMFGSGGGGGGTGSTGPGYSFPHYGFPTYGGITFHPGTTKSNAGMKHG
Procedure: (§2) All compounds were evaluated for their potential anti-inflammatory activity by examining the activity of NF-κB in vitro in nuclear extracts using the procedure from Breton and Charbot-Fletcher (Breton et al., J. Pharmacol. Exp. Ther. 282 459-466 (1997)). […] The Jurkat cells (1×10^7 cells/mL) are subsequently treated with various concentrations of imidazoline for 30 minutes at 37° C. followed by PMA stimulation (5.0 ng/mL) for an additional 5 hours. Nuclear extracts are incubated for 20 minutes with a double stranded Cy3 labeled NF-κB consensus oligonucleotide, 5′-[…]-3′ (SEQ ID NO:1) at room temperature. The crude mixture is loaded on a 5% non-denaturing polyacrylamide gel prepared in 1×Tris borate/EDTA buffer and electrophoresed at 200V for 2 hours. After electrophoresis the gel is analyzed using a phosphorimager (Biorad FX PLUS) for detection of the NF-κB-DNA binding.
EMSA assay for NF-κB-DNA binding was as follows. […] The Jurkat cells (1×10^6 cells/mL) were subsequently treated with various concentrations of the compounds for 30 minutes at 37° C. and 5% CO2 followed by PMA (50 ng/mL) and PHA ([…]) stimulation for an additional 30 minutes. The cells were harvested by centrifugation, washed in ice cold PBS and the nuclear extracts were prepared as previously described (Dignam, et al., Nucl. Acids Res 11: 1475-1489 (1983)). The protein concentration of the extracts was determined according to the Method of Bradford (1976) with BioRad reagents. Nuclear extracts are incubated for 20 minutes at room temperature with a double stranded Cy3 labeled NF-kB consensus oligonucleotide, 5′-[…] CCAGGC-3′ (SEQ ID NO:1). The binding mixture ([…]) contained 10 mM HEPES-NaOH pH 7.9, 4 mM tris-HCl, pH 7.9, 6.0 mM KCl, 1 mM EDTA, 1 mM DTT, 10% glycerol, 0.3 mg/mL bovide serum albumin and […] of poly (dI.dC). The binding mixtures ([…] of nuclear extract protein) were incubated for 20 minutes at room temrperature with 0.16 pmol of Cy3 labeled oligonucleotide. The mixture was loaded on a 4% polyacrylamide gel prepared in 1× tris borate/EDTA buffer and was electrophoresed at 200 V for 20 minutes. After electrophoresis the gel was analyzed using a phosphorimager (Biorad FX plus) for detection of the NF-kB—DNA binding.

NF-κB [2] = biological target: T1, NF-κB; test: IC50 values in Mammalian Jurkat cells Leukemia T cells; format: cell-based; design: endogenous in cells; host or cells: Jurkat leukemia T-cells, clone E6-1 (ATCC), PMA-stimulated; nuclear extract; details: concentration at which 50% of the protein/enzyme is inhibited in cells
Procedure: as §2
IC50 values in Mammalian Jurkat cells Leukemia T cells: IC50 value is defined as the concentration of compounds at which 50% of the protein/enzyme is inhibited in cells (Table 3).

[3] = system: NF-κB p50/p65 heterodimer; test: p65-ELISA assay of NF-κB nuclear translocation in Jurkat cells; format: cell-based, Human; details: concentrations 100 ηM-5.0 μM, 30 minutes prior to PMA activation
Procedure: Inhibition of the nuclear translocation of the p50/p65 heterodimer of NF-κB was confirmed by a p65-ELISA assay. Cells were treated with the PDTC (positive control-reported to inhibit IκB phosphorylation thus inhibiting NF-κB translocation), and imidazoline 32, 30 minutes prior to PMA activation, followed by the isolation of the nuclear extract after a 30 minute incubation period.
The quantity of p65/p50 heterodimer that has translocated into the nucleus was measured using a NF-κB p65 sandwich ELISA assay (Imgenex Corp.). Jurkat cells were grown to 2×10^6 cells/mL and treated with 50 ng/mL PMA and 1 μg/mL PMA/PHA and incubated at 37° C., 5% CO2. The cells are harvested after 30 minutes and nuclear extracts are prepared as previously described by Dignam and coworkers (Dignam, et al., Nucl. Acids Res 11: 1475-1489 (1983)). The NF-κB p65 sandwich ELISA kit was then used to monitor and quantify p65 translocation into the nucleus according to the manufacturers protocol.

CEM cells = system: CEM cells
Procedure: Imidazolines 28-33 were evaluated for their ability to enhance the activity of camptothecin in CEM cells. Induction of apoptosis is the hallmark of most chemotherapeutic agents including camptothecin. The systematic disassembly of apoptotic cells is accomplished by active caspases (Thornberry et al., Nature 356: 768-774 (1992); Nicholson et al., Trends Biochem. Sci. 22: 299-306 (1997)). A standard apoptosis assay is Promega's APO-ONE homogeneous caspase-3/7 assay, which takes advantage of this caspase activity to directly quantify the induction of apoptosis in cells (Thornberry et al., Nature 356: 768-774 (1992); Nicholson et al., Trends Biochem. Sci. 22: 299-306 (1997)). According to the hypothesis that NF-κB inhibition should enhance the activity of chemotherapeutic agents via the inhibition of anti-apoptotic signaling pathway—thus enhancement of apoptosis—(Boland, Biochem Soc Trans 29: 674-678 (2001); Chiao et al., Cancer 95: 1696-1705 (2002)), we investigated the effects of the imidazolines using this caspase-3/7 assay. This assay quantifies the level of apoptotic cell death induced by camptothecin with and without the imidazolines and will establish the direct level of enhancement of apoptosis by camptothecin.
Induction of apoptosis using caspase 3/7 assay was as follows. CEM cells (CCRF-CEM); Amer. Type Culture Collection, Rockville, Md.) were grown in RPMI-1640 Media (Gibco-BRL, Rockville, Md.) supplemented with 10% fetal bovine serum, penicillin (614 ηg/mL), streptomycin (10 μg/mL) and hepes buffer, pH 7.2 at 37° C., 5% CO2. DMSO was used as the vector for all drugs and added in the control experiments. Cell cultures were treated with 1 μM, 0.1 μM or 10 nM of the imidazolines and allowed to incubate at 37° C., 5% CO2. An aliquote was transferred to a 96-well plate and mixed with an equal volume of Apo-ONE™ Homogenous Caspase-3/7 assay (Promega Corporation) reagent. The contents of the plate were gently mixed and allowed to incubate for 1 hour. The fluorescence of each well was then measured on a Molecular Imager FX Pro at 532 nm. All reported data was the average of two independent experiments unless otherwise indicated.

[4] = IP, doses 5.0 and 50 mg/kg
Procedure: Prior to the combinatorial studies, the toxicity of the compounds was determined in the mouse model. […] In short, the drugs are dissolved in DMSO and 100 μL given to the mice on day 0 by intraperitoneal injection (IP). […] Weight and death were the two measures of toxicity.

NF-κB [5] = biological target: T1, NF-κB; test: EMSA of camptothecin activated NF-κB in CEM leukemia T-cells; format: cell-based; design: endogenous in cells; nuclear extract
Procedure: CEM cells were incubated with and without varying concentrations of camptothecin (CPT). Positive controls included PMA/PHA activation (FIG. 11, lane 2). Lane 3 included a positive control using PMA/PHA activation followed by the treatment of the extract with a NF-κB p65 antibody to unambiguously identify the NF-κB/DNA complex.
CEM cells were treated with various concentration of imidazoline 32, 30 minutes prior to activation by camptothecin (0.1 μM). […] Control lanes include: DNA only (lane 1), PMA/PHA activated NF-κB (lane 2), PMA/PHA activated NF-κB treated with a p65 antibody, which provide a supershift (lane 3) and the unactivated control (lane 4).
EMSA assay for NF-κB-DNA binding was as follows. […] The cells were harvested by centrifugation, washed in ice cold PBS and the nuclear extracts were prepared as previously described (Dignam, et al., Nucl. Acids Res 11: 1475-1489 (1983)). The protein concentration of the extracts was determined according to the Method of Bradford (1976) with BioRad reagents. Nuclear extracts are incubated for 20 minutes at room temperature with a double stranded Cy3 labeled NF-kB consensus oligonucleotide, 5′-[sequence] […] The binding mixture (25 mL) contained 10 mM HEPES-NaOH pH 7.9, 4 mM tris-HCl, pH 7.9, 6.0 mM KCl, 1 mM EDTA, 1 mM DTT, 10% glycerol, 0.3 mg/mL bovide serum albumin and 1 mg of poly (dI.dC). The binding mixtures (10 mg of nuclear extract protein) were incubated for 20 minutes at room temrperature with 0.16 pmol of Cy3 labeled oligonucleotide. The mixture was loaded on a 4% polyacrylamide gel prepared in 1× tris borate/EDTA buffer and was electrophoresed at 200 V for 20 minutes. After electrophoresis the gel was analyzed using a phosphorimager (Biorad FX plus) for detection of the NF-kB—DNA binding.

SMILES: O=C(O)[C@@]1(c2ccccc2)N=C(c2ccccc2)N(Cc2ccccc2)[C@H]1c1ccccc1 (racemic) [Compound 4, Dl-(3S,4S)-1-Benzyl-2,4,5-triphenyl-4,5-dihydro-1H-imidazole-4-carboxylic acid]
- zone of inhibition diameter (Bacillus cereus): 11 mm
- zone of inhibition diameter (Bacillus subtillus): 13 mm
- zone of inhibition diameter (Micrococcus luteus): 12 mm
- zone of inhibition diameter (Staphylococcus aureus): 12 mm
- Days Delay (tumor growth delay) (RIF-1 murine tumor; IP, imidazoline 100 mg/kg, cis-platin 4 mg/kg, camptothecin 6 mg/kg): -0.56 days
- Median (days to 4x) (RIF-1 murine tumor; IP, imidazoline 100 mg/kg, cis-platin 4 mg/kg, camptothecin 6 mg/kg, untreated 7.0): 6.5 days
- Days to 4x (Ave ±SE) (RIF-1 murine tumor; IP, imidazoline 100 mg/kg, cis-platin 4 mg/kg, camptothecin 6 mg/kg, untreated 7.3 ± 0.6): 6.4 ± 0.2 days
- tumors < 4x at Day 22 (RIF-1 murine tumor; cis-platin 4 mg/kg + compound 4 100 mg/kg IP): 4 of the 8
- chemopotentiation of camptothecin (RIF-1 murine tumor; combinational treatment with camptothecin (CPT), RIF-1 tumors in mice): No significant chemopotentiation
- chemopotentiation of cis-platin (RIF-1 murine tumor; combinational treatment with cis-platin (CDDP), RIF-1 tumors in mice): considerable chemopotentiation
- inhibition at 1 µM (NF-κB [1]): 65%
- IC50 (NF-κB [2]): 73 nM

SMILES: O=C(O)[C@@]1(c2ccccc2)N=C(c2ccccc2)N(Cc2ccccc2)[C@H]1c1ccccc1 (racemic) [Compound 32, dl-(4S,5S)-1-Benzyl-2,4,5-triphenyl-4,5-dihydro-1H-imidazole-4-carboxylic acid]
- inhibition of NF-κB p50/p65 heterodimer nuclear translocation [3]: inhibition of nuclear translocation of NF-κB; also recorded: significantly inhibits
- Apoptosis (±S.D.) (CEM cells): 1.98 ± 0.0001
- chemopotentiation of cis-platin (apoptosis) (CEM cells; CEM cells, 0.1 micromolar cis-platin + 0.1 micromolar 32 versus 1.0 micromolar cis-platin): chemopotentiation of cis-platin; also recorded: chemopotentiate cis-platin
- induction of apoptosis in combination with camptothecin (CEM cells; CEM cells, CPT 0.1 μM with varying concentrations of imidazoline, 48 hours): dose dependent enhancement of apoptosis
- tolerability in mice [4]: well tolerated
- NF-κB-DNA complex formation (NF-κB [5]; 0.1 μM CPT + 10 μM compound 32 (lane 7 versus lane 5)): significant decrease
- inhibition of camptothecin induced NF-κB nuclear binding (NF-κB [5]; CPT 0.1 μM, 32 at 10 μM to 10 nM, PDTC 5 μM): inhibited camptothecin induced NF-κB nuclear binding in a dose responds manner
